Here are results for eleven molecules from patent EP4603105A1, “PHARMACEUTICAL COMPOSITION CONTAINING CYCLIC COMPOUND HAVING SELECTIVE KRAS INHIBITORY EFFECT AGAINST HRAS AND NRAS” (CHUGAI SEIYAKU KABUSHIKI KAISHA, priority 2022, dated 2024).

In general, Kd refers to the constant that tells how readily two partners part at equilibrium. The term IC50 denotes the concentration at which inhibition is half-maximal.

Test [1] concerns the target GDP-bound KRAS wild-type protein (Homo sapiens, UniProt P01116). As to the kind of experiment: Binding to KRAS by surface plasmon resonance (SPR), dissociation constant KD. The following applies: Single Cycle Kinetics, 1:1 binding model. A digest of the protocol: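 Compound binding is evaluated by SPR single-cycle kinetics, with concentrations added intermittently from low to high for 75 s each. Target surfaces carry GDP-loaded biotinylated Avi-RAS at about 100–300 RU, regenerated after each cycle; temperature 30°C. A 1:1 binding model gives KD.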

The test system of test [2] is human lung cancer strain NCI-H441. As to the kind of experiment: NCI-H441 cell proliferation inhibitory activity (CellTiter-Glo, 4 days). Format: cell-based. The following applies: 50% proliferation inhibitory concentration, four days, read-out: NCl-H441 IC50. A digest of the protocol:
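Signal came from […] measured per well once the reagent was added. Beforehand, cells were cultured at 37°C and 5% carbon dioxide on a compound series serially diluted in dimethyl sulfoxide.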

The target in test [3] is HRAS wild-type protein (Homo sapiens, UniProt P01112). As to the kind of experiment: Binding to HRAS by surface plasmon resonance (SPR), KD and KD ratio to KRAS. The following applies: ratio of KD with respect to HRAS wild-type protein to KD with respect to KRAS. The essentials: (§1)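 Recombinant RAS proteins bearing a biotinylated Avi tag and loaded with GDP served as the captured ligand, recaptured fresh every cycle. Binding responses were referenced to an uncoated surface and a buffer-only blank cycle. Dissociation constants were obtained by 1:1 model fitting at 30°C.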
Chain of HRAS wild-type protein (P01112 whole entry): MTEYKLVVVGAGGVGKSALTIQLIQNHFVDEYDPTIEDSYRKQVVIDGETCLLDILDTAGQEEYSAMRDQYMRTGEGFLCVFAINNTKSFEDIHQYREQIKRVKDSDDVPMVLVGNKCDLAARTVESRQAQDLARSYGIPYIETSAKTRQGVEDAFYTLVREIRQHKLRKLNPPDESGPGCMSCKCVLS

Test [4] concerns the target GDP-bound NRAS wild-type protein (Homo sapiens, UniProt P01111). As to the kind of experiment: Binding to NRAS by surface plasmon resonance (SPR), KD and KD ratio to KRAS. To be noted: ratio of KD with respect to GDP-bound NRAS wild-type protein to KD with respect to KRAS. The essentials:
as §1
(In general: Surface plasmon resonance follows binding to a sensor surface in real time, without labels.)

Chain of GDP-bound NRAS wild-type protein (P01111 whole entry): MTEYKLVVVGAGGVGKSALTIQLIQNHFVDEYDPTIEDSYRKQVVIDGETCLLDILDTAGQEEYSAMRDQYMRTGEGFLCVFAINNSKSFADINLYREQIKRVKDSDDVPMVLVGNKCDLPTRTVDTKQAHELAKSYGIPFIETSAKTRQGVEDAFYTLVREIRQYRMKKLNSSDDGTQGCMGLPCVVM
Chain of GDP-bound KRAS wild-type protein (P01116 1-188 isoform P01116-2): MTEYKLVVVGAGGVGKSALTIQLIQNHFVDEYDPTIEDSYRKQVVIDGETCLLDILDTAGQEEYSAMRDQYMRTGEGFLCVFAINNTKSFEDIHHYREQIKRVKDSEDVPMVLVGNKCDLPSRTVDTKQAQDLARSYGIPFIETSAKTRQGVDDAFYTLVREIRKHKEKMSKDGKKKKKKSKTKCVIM

In test [1], `CC[C@H](C)[C@@H]1NC(=O)[C@H](CC2CCC2)N(C)C(=O)C[C@@H](C(=O)N(C)C)N(C)C(=O)[C@H](C2CCCC2)N(C)C(=O)C2(CCCC2)NC(=O)[C@@H]2CCCN2C(=O)[C@H](CCc2ccc(C(F)(F)F)c(Cl)c2)NC(=O)CN(C)C(=O)[C@H](Cc2ccc(C(F)(F)F)cc2)N2C[C@H](C)CC[C@@H](C2=O)N(C)C(=O)CN(C)C1=O` [PP1342] came in with a Kd of 0.091 nM. Moreover, the IC50 in test [2] came to 5 nM. Besides, in test [3], the “HRAS /KRAS” value was “B (a compound having 3 or more and less than 10 is denoted as B)”. Further, the “NRAS /KRAS” value in test [4] was “B (a compound having 3 or more and less than 10 is denoted as B)”.
`CCO[C@@H]1C[C@H]2C(=O)NC3(CCCC3)C(=O)N(C)[C@@H](C3CCCC3)C(=O)N(C)[C@H](C(=O)N(C)C)CC(=O)N(C)[C@@H](CC)C(=O)N[C@@H]([C@@H](C)CC)C(=O)N(C)CC(=O)N(C)[C@H]3C[C@H](C)C(C)CN(C3=O)[C@@H](Cc3ccc(C(F)(F)F)cc3)C(=O)N(C)CC(=O)N[C@@H](CCc3cc(F)c(C(F)(F)F)c(F)c3)C(=O)N2C1` (some centres unmarked) [PP1347] displayed a Kd in test [1] of 0.017 nM. The IC50 in test [2] came to 3.6 nM. Also, in test [3], the “HRAS /KRAS” value was “B (a compound having 3 or more and less than 10 is denoted as B)”. The “NRAS /KRAS” value in test [4] is “B (a compound having 3 or more and less than 10 is denoted as B)”.
Consider `CCO[C@@H]1C[C@H]2C(=O)NC3(CCCC3)C(=O)N(C)[C@@H](C3CCCC3)C(=O)N(C)[C@H](C(=O)N3CCOCC3)CC(=O)N(C)[C@@H](CC)C(=O)N[C@@H]([C@@H](C)CC)C(=O)N(C)CC(=O)N(C)[C@H]3C[C@H](C)C(C)CN(C3=O)[C@@H](Cc3ccc(C(F)(F)F)cc3)C(=O)N(C)CC(=O)N[C@@H](CCc3cc(F)c(C(F)(F)F)c(F)c3)C(=O)N2C1` (some centres unmarked) [PP1348], for which, in test [1], binding was put at a Kd of 0.076 nM. Also, the 50% inhibitory concentration (IC50) in test [2] came out at 8.7 nM. The “HRAS /KRAS” value in test [3] was “B (a compound having 3 or more and less than 10 is denoted as B)”. For the same molecule, the “NRAS /KRAS” value in test [4] is “B (a compound having 3 or more and less than 10 is denoted as B)”.
In test [1], `CCO[C@@H]1C[C@H]2C(=O)NC3(CCC3)C(=O)N(C)[C@@H](C3CCCC3)C(=O)N(C)[C@H](C(=O)N3CCOCC3)CC(=O)N(C)[C@@H](CC)C(=O)N[C@@H]([C@@H](C)CC)C(=O)N3CC[C@H]3C(=O)N(C)[C@H]3C[C@@H](C)[C@@H](C)CN(C3=O)[C@@H](Cc3ccc(C(F)(F)F)cc3)C(=O)N(C)CC(=O)N[C@@H](CCc3cc(F)c(C(F)(F)F)c(F)c3)C(=O)N2C1` [PP1351] had a Kd of 0.13 nM. Moreover, in test [2], the IC50 amounted to 12.8 nM. Besides, the “HRAS /KRAS” value in test [3] is “B (a compound having 3 or more and less than 10 is denoted as B)”. The “NRAS /KRAS” value in test [4] was “A (a compound having 10 or more and less than 20 is denoted as A)”.
In the case of `CCO[C@@H]1C[C@H]2C(=O)NC3(CCCC3)C(=O)N(C)[C@@H](C3CCCC3)C(=O)N(C)[C@H](C(=O)N(C)C)CC(=O)N(C)[C@@H](CC)C(=O)N[C@@H]([C@@H](C)CC)C(=O)N(C)CC(=O)N(C)[C@H]3C[C@@H](C)[C@@H](C)CN(C3=O)[C@@H](Cc3ccc(C(F)(F)F)cc3)C(=O)N(C)CC(=O)N[C@@H](CCc3cc(F)c(C(F)(F)F)c(F)c3)C(=O)N2C1` [PP1352], the Kd in test [1] was 0.024 nM. Further, the IC50 in test [2] amounted to 4.6 nM. For the same molecule, the “HRAS /KRAS” value in test [3] was “B (a compound having 3 or more and less than 10 is denoted as B)”. In addition, the “NRAS /KRAS” value in test [4] is “A (a compound having 10 or more and less than 20 is denoted as A)”.
In turn, `CCO[C@@H]1C[C@H]2C(=O)NC3(CCCC3)C(=O)N(C)[C@@H](C3CCCC3)C(=O)N(C)[C@H](C(=O)N3CCOCC3)CC(=O)N(C)[C@@H](CC)C(=O)N[C@@H]([C@@H](C)CC)C(=O)N(C)CC(=O)N(C)[C@H]3C[C@@H](C)[C@@H](C)CN(C3=O)[C@@H](Cc3ccc(C(F)(F)F)cc3)C(=O)N(C)CC(=O)N[C@@H](CCc3cc(F)c(C(F)(F)F)c(F)c3)C(=O)N2C1` [PP1353] had a Kd in test [1] of 0.1 nM. Also, the IC50 in test [2] is 3.7 nM. For the same molecule, in test [3], the “HRAS /KRAS” value is “B (a compound having 3 or more and less than 10 is denoted as B)”. Moreover, the “NRAS /KRAS” value in test [4] was “A (a compound having 10 or more and less than 20 is denoted as A)”.
Molecule `CCO[C@@H]1C[C@H]2C(=O)NC3(CCC3)C(=O)N(C)[C@@H](C3CCCC3)C(=O)N(C)[C@H](C(=O)N3CCOCC3)CC(=O)N(C)[C@@H](CC)C(=O)N[C@@H]([C@@H](C)CC)C(=O)N(C)CC(=O)N(C)[C@H]3C[C@@H](C)[C@@H](C)CN(C3=O)[C@@H](Cc3ccc(C(F)(F)F)cc3)C(=O)N(C)CC(=O)N[C@@H](CCc3cc(F)c(C(F)(F)F)c(F)c3)C(=O)N2C1` [PP1354] came in with a dissociation constant Kd in test [1] of 0.056 nM. For the same molecule, the IC50 in test [2] stood at 3.6 nM. Also, the “HRAS /KRAS” value in test [3] was “B (a compound having 3 or more and less than 10 is denoted as B)”. Besides, the “NRAS /KRAS” value in test [4] was “A (a compound having 10 or more and less than 20 is denoted as A)”.
`CCO[C@@H]1C[C@H]2C(=O)NC3(CCC3)C(=O)N(C)[C@@H](C3CCCC3)C(=O)N(C)[C@H](C(=O)N3CCOCC3)CC(=O)N(C)[C@@H](CC(C)C)C(=O)N[C@@H]([C@@H](C)CC)C(=O)N3CC[C@H]3C(=O)N(C)[C@H]3C[C@@H](C)[C@@H](C)CN(C3=O)[C@@H](Cc3ccc(C(F)(F)F)cc3)C(=O)N(C)CC(=O)N[C@@H](CCc3cc(F)c(C(F)(F)F)c(F)c3)C(=O)N2C1` [PP1355]: in test [1], the Kd worked out at 0.16 nM. For the same molecule, the IC50 in test [2] is 10.2 nM. Besides, in test [3], the “HRAS /KRAS” value was “B (a compound having 3 or more and less than 10 is denoted as B)”. Besides, the “NRAS /KRAS” value in test [4] was “A (a compound having 10 or more and less than 20 is denoted as A)”.
`CCO[C@@H]1C[C@H]2C(=O)NC3(CCCC3)C(=O)N(C)[C@@H](C3CCCC3)C(=O)N(C)[C@H](C(=O)N(C)C)CC(=O)N(C)[C@@H](CC3CC3)C(=O)N[C@@H]([C@@H](C)CC)C(=O)N(C)CC(=O)N(C)[C@H]3C[C@@H](C)[C@@H](C)CN(C3=O)[C@@H](Cc3ccc(C(F)(F)F)cc3)C(=O)N(C)CC(=O)N[C@@H](CCc3cc(F)c(C(F)(F)F)c(F)c3)C(=O)N2C1` [PP1356] displayed a Kd in test [1] of 0.047 nM. Moreover, the IC50 in test [2] stood at 3.3 nM. The “HRAS /KRAS” value in test [3] is “B (a compound having 3 or more and less than 10 is denoted as B)”. In addition, the “NRAS /KRAS” value in test [4] is “B (a compound having 3 or more and less than 10 is denoted as B)”.
Consider `CCO[C@@H]1C[C@H]2C(=O)NC3(CCC3)C(=O)N(C)[C@@H](C3CCCC3)C(=O)N(C)[C@H](C(=O)N3CCOCC3)CC(=O)N(C)[C@@H](CC)C(=O)N[C@@H]([C@@H](C)CC)C(=O)N3CC[C@H]3C(=O)N(C)[C@H]3C[C@@H](C)[C@@H](C)CN(C3=O)[C@@H](Cc3ccc(C(F)(F)F)cc3)C(=O)N(C)CC(=O)N[C@@H](CCc3ccc(C(F)(F)F)c(Cl)c3)C(=O)N2C1` [PP1357], for which, in test [1], the Kd was determined as 0.13 nM. Also, the IC50 in test [2] came to 5.4 nM. Besides, the “HRAS /KRAS” value in test [3] is “B (a compound having 3 or more and less than 10 is denoted as B)”. In addition, the “NRAS /KRAS” value in test [4] was “A (a compound having 10 or more and less than 20 is denoted as A)”.
The molecule `CCO[C@@H]1C[C@H]2C(=O)NC3(CCCC3)C(=O)N(C)[C@@H](C3CCCC3)C(=O)N(C)[C@H](C(=O)N(C)C)CC(=O)N(C)[C@@H](CC)C(=O)N[C@@H]([C@@H](C)CC)C(=O)N(C)CC(=O)N(C)[C@H]3C[C@@H](C)[C@@H](C)CN(C3=O)[C@@H](Cc3ccc(C(F)(F)F)cc3)C(=O)N(C)CC(=O)N[C@@H](CCc3ccc(C(F)(F)F)c(Cl)c3)C(=O)N2C1` [PP1358] gave a dissociation constant Kd in test [1] of 0.03 nM. Further, the concentration for half-maximal inhibition (IC50) in test [2] worked out at 4.1 nM. Besides, the “HRAS /KRAS” value in test [3] was “B (a compound having 3 or more and less than 10 is denoted as B)”. Also, the “NRAS /KRAS” value in test [4] is “A (a compound having 10 or more and less than 20 is denoted as A)”.
